From article PMC7456477, “Pharmacokinetic Study of Thirteen Ingredients after the Oral Administration of Flos Chrysanthemi Extract in Rats by UPLC-MS/MS” (BioMed Research International, 2020)

Legend:
[1] = Pharmacokinetic study in rat plasma after oral administration of Flos Chrysanthemi extract (UPLC-MS/MS); format: in vivo, Sprague-Dawley rats; details: rats, oral Flos Chrysanthemi extract 10 g/kg; for Detection in plasma over the sampling time: result in words; for AUC(0-inf) / Cmax / Tmax / half-life / AUC / k el: male, Sprague-Dawley, rat; for AUC: read-out: AUC(0 − tn); for k el: read-out: Ke (converted)
Protocol: Six male Sprague-Dawley rats (250 ± 5 g) were purchased from Huafukang Bioscience Co., Inc. (Beijing, China). The rats were adapted to the facility for a week. Before the experiments, rats were fasted for 12 h, although drinking water was readily accessible. Flos Chrysanthemi extract was dissolved in CMC-Na aqueous solution and orally administered to the animals once at 10 g/kg. Blood samples (220 μL) were taken from the orbital venous plexus of rats at 0, 0.03, 0.08, 0.17, 0.25, 0.5, 1, 2, 4, 6, 8, 10, 12, and 24 h after extract administration. Blood samples were promptly centrifuged at 6000 rpm for 10 min, and plasma samples were collected. The obtained plasma was stored at -80°C until analysis. “Drug and Statistics 3.0” software (Medical College of Wannan, China) was used to calculate pharmacokinetic parameters. The animal protocol was approved by the Animal Ethics Committee of Tianjin University of Traditional Chinese Medicine (TCM-LAEC20190056).
Plasma samples from rats orally administered with Flos Chrysanthemi extract (10.0 g/kg) were analysed with UPLC-MS/MS. Plasma concentration-time curves are shown in Figure 3, and the primary pharmacokinetic parameters of each analyte are summarized in Table 6.

[2] = Stability of analytes in rat plasma (QC samples under four storage conditions); format: in vitro ADME; details: n = 6
Protocol: To study the stability of all compounds in rat plasma, low, medium, and high concentrations of QC samples were tested under the following test conditions: stored at an autosampler for 12 hours, stored at room temperature for 6 hours, put through three freeze/thaw cycles, and stored at -80°C for 14 days. Three QC concentrations were tested for each of the above conditions.
The stability of all 13 analytes during sample collection and processing was evaluated with the various storage conditions being tested on spiked plasma samples at three QC concentrations.

[3] = spiked concentration 1000 ng/mL
[4] = spiked concentration 4000 ng/mL

| Compound | Measured concentration, -80°C for 14 days ([2]; spiked concentration 5 ng/mL) [ng/mL] | Measured concentration, Autosampler for 12 h ([2]; spiked concentration 5 ng/mL) [ng/mL] | Measured concentration, Room temperature for 6 h ([2]; spiked concentration 5 ng/mL) [ng/mL] | Measured concentration, Three freeze-thaw cycles ([2]; spiked concentration 5 ng/mL) [ng/mL] | Measured concentration, -80°C for 14 days ([2]; spiked concentration 50 ng/mL) [ng/mL] | Measured concentration, Autosampler for 12 h ([2]; spiked concentration 50 ng/mL) [ng/mL] | Measured concentration, Room temperature for 6 h ([2]; spiked concentration 50 ng/mL) [ng/mL] | Measured concentration, Three freeze-thaw cycles ([2]; spiked concentration 50 ng/mL) [ng/mL] | Measured concentration, -80°C for 14 days [2, 3] [ng/mL] | Measured concentration, Autosampler for 12 h [2, 3] [ng/mL] | Measured concentration, Room temperature for 6 h [2, 3] [ng/mL] | Measured concentration, Three freeze-thaw cycles [2, 3] [ng/mL] | AUC(0-inf) ([1]; plasma, n = 6) [ng·h/mL] | Cmax ([1]; plasma, n = 6) [ng/mL] | Tmax ([1]; plasma, n = 6) [h] | half-life ([1]; plasma, n = 6) [h] | AUC ([1]; plasma, n = 6) [ng·h/mL] | k el ([1]; plasma, n = 6) [s⁻¹] | also measured |
| --- | --- | --- | --- | --- | --- | --- | --- | --- | --- | --- | --- | --- | --- | --- | --- | --- | --- | --- | --- |
| COc1ccc(-c2cc(=O)c3c(O)cc(O)cc3o2)cc1 [Acacetin] | 4.5 ± 0.1 | 5.3 ± 0.1 | 4.6 ± 0.1 | 5.8 ± 0.1 | 50.5 ± 0.7 | 47.8 ± 0.7 | 50.3 ± 0.8 | 50.2 ± 5.7 | 977.4 ± 57.9 | 1030.3 ± 4.9 | 1126.2 ± 9.5 | 1032.7 ± 5.6 |  |  |  |  |  |  | Detection in plasma over the sampling time [1]: detected only at the first few blood sampling points |
| O=C(/C=C/c1ccc(O)c(O)c1)O[C@@H]1C[C@](O)(C(=O)O)C[C@@H](O)[C@H]1O [Chlorogenic acid] | 5.2 ± 0.1 | 5.1 ± 0.1 | 5.8 ± 0.1 | 5.8 ± 0.1 | 44.4 ± 0.3 | 43.5 ± 0.7 | 49.7 ± 2.3 | 54.7 ± 0.4 | 1117.1 ± 2.0 | 1084.8 ± 13.6 | 1079.2 ± 8.3 | 1123.5 ± 7.3 | 494 ± 205 | 194 ± 56.4 |  | 0.2 ± 0.17 | 426 ± 139 | 0.00112 | T max ([1]; plasma, n = 6): 0.25 ± 0.00 h |
| O=c1cc(-c2ccc(O)c(O)c2)oc2cc(O[C@@H]3O[C@H](CO)[C@@H](O)[C@H](O)[C@H]3O)cc(O)c12 [Cynaroside] |  |  |  |  |  |  |  |  |  |  |  |  | 19100 ± 20000 | 2550 ± 1120 | 6.38 ± 3.8 | 5.01 ± 4.44 | 19100 ± 19900 | 7.78e-05 | Measured concentration, -80°C for 14 days ([2]; spiked concentration 20 ng/mL): 21.1 ± 0.8 ng/mL; Measured concentration, Autosampler for 12 h ([2]; spiked concentration 20 ng/mL): 20.0 ± 0.2 ng/mL; Measured concentration, Room temperature for 6 h ([2]; spiked concentration 20 ng/mL): 20.6 ± 0.9 ng/mL; Measured concentration, Three freeze-thaw cycles ([2]; spiked concentration 20 ng/mL): 22.6 ± 1.0 ng/mL; Measured concentration, -80°C for 14 days ([2]; spiked concentration 200 ng/mL): 205.0 ± 4.0 ng/mL; Measured concentration, Autosampler for 12 h ([2]; spiked concentration 200 ng/mL): 203.4 ± 6.1 ng/mL; Measured concentration, Room temperature for 6 h ([2]; spiked concentration 200 ng/mL): 182.4 ± 0.6 ng/mL; Measured concentration, Three freeze-thaw cycles ([2]; spiked concentration 200 ng/mL): 219.8 ± 1.0 ng/mL; Measured concentration, -80°C for 14 days [2, 4]: 4060.3 ± 121.9 ng/mL; Measured concentration, Autosampler for 12 h [2, 4]: 4158.6 ± 15.3 ng/mL; Measured concentration, Room temperature for 6 h [2, 4]: 4360.1 ± 32.4 ng/mL; Measured concentration, Three freeze-thaw cycles [2, 4]: 4152.9 ± 34.1 ng/mL |
| COc1ccc([C@@H]2CC(=O)c3c(O)cc(O[C@@H]4O[C@H](CO[C@@H]5O[C@@H](C)[C@H](O)[C@@H](O)[C@H]5O)[C@@H](O)[C@H](O)[C@H]4O)cc3O2)cc1O [Hesperidin] |  |  |  |  |  |  |  |  |  |  |  |  |  |  |  |  |  |  | Detection in plasma over the sampling time [1]: detected only at the first few blood sampling points; Measured concentration, -80°C for 14 days ([2]; spiked concentration 1 ng/mL): 1.1 ± 0.1 ng/mL; Measured concentration, Autosampler for 12 h ([2]; spiked concentration 1 ng/mL): 1.0 ± 0.1 ng/mL; Measured concentration, Room temperature for 6 h ([2]; spiked concentration 1 ng/mL): 1.1 ± 0.1 ng/mL; Measured concentration, Three freeze-thaw cycles ([2]; spiked concentration 1 ng/mL): 1.1 ± 0.1 ng/mL; Measured concentration, -80°C for 14 days ([2]; spiked concentration 10 ng/mL): 9.5 ± 0.2 ng/mL; Measured concentration, Autosampler for 12 h ([2]; spiked concentration 10 ng/mL): 8.8 ± 0.1 ng/mL; Measured concentration, Room temperature for 6 h ([2]; spiked concentration 10 ng/mL): 10.2 ± 0.4 ng/mL; Measured concentration, Three freeze-thaw cycles ([2]; spiked concentration 10 ng/mL): 10.0 ± 0.1 ng/mL; Measured concentration, -80°C for 14 days ([2]; spiked concentration 200 ng/mL): 209.5 ± 2.3 ng/mL; Measured concentration, Autosampler for 12 h ([2]; spiked concentration 200 ng/mL): 222.7 ± 2.0 ng/mL; Measured concentration, Room temperature for 6 h ([2]; spiked concentration 200 ng/mL): 213.7 ± 2.1 ng/mL; Measured concentration, Three freeze-thaw cycles ([2]; spiked concentration 200 ng/mL): 218.3 ± 0.7 ng/mL |

The next lines start with results.

| Measured concentration, -80°C for 14 days ([2]; spiked concentration 5 ng/mL) [ng/mL] | Measured concentration, Autosampler for 12 h ([2]; spiked concentration 5 ng/mL) [ng/mL] | Measured concentration, Room temperature for 6 h ([2]; spiked concentration 5 ng/mL) [ng/mL] | Measured concentration, Three freeze-thaw cycles ([2]; spiked concentration 5 ng/mL) [ng/mL] | Measured concentration, -80°C for 14 days ([2]; spiked concentration 50 ng/mL) [ng/mL] | Measured concentration, Autosampler for 12 h ([2]; spiked concentration 50 ng/mL) [ng/mL] | Measured concentration, Room temperature for 6 h ([2]; spiked concentration 50 ng/mL) [ng/mL] | Measured concentration, Three freeze-thaw cycles ([2]; spiked concentration 50 ng/mL) [ng/mL] | Measured concentration, -80°C for 14 days [2, 3] [ng/mL] | Measured concentration, Autosampler for 12 h [2, 3] [ng/mL] | Measured concentration, Room temperature for 6 h [2, 3] [ng/mL] | Measured concentration, Three freeze-thaw cycles [2, 3] [ng/mL] | AUC(0-inf) ([1]; plasma, n = 6) [ng·h/mL] | Cmax ([1]; plasma, n = 6) [ng/mL] | Tmax ([1]; plasma, n = 6) [h] | half-life ([1]; plasma, n = 6) [h] | AUC ([1]; plasma, n = 6) [ng·h/mL] | k el ([1]; plasma, n = 6) [s⁻¹] | Compound | also measured |
| --- | --- | --- | --- | --- | --- | --- | --- | --- | --- | --- | --- | --- | --- | --- | --- | --- | --- | --- | --- |
| 5.1 ± 0.2 | 4.3 ± 0.1 | 5.9 ± 0.1 | 5.6 ± 0.4 | 51.1 ± 0.4 | 44.5 ± 0.7 | 50.5 ± 1.0 | 53.7 ± 0.6 | 1108.3 ± 25.6 | 1077.6 ± 9.6 | 1086.7 ± 12.9 | 1112.8 ± 7.2 | 1470 ± 614 | 96.4 ± 24.8 | 0.69 ± 0.49 | 13.9 ± 10.2 | 1320 ± 489 | 6.94e-05 | O=c1cc(-c2ccc(O)cc2)oc2cc(O[C@@H]3O[C@H](CO)[C@@H](O)[C@H](O)[C@H]3O)cc(O)c12 [Apigenin 7-glucoside] |  |
| 5.2 ± 0.1 | 5.4 ± 0.2 | 4.9 ± 0.1 | 5.7 ± 0.1 | 49.3 ± 1.9 | 45.8 ± 1.3 | 49.3 ± 1.1 | 50.5 ± 0.4 | 1063.8 ± 62.8 | 987.0 ± 11.4 | 1112.4 ± 11.7 | 1086.4 ± 17.6 | 3090 ± 447 | 302 ± 87.1 | 0.5 | 11.1 ± 7.1 | 2900 ± 251 | 2.5e-05 | O=c1cc(-c2ccc(O)cc2)oc2cc(O)cc(O)c12 [Apigenin] |  |
| 5.2 ± 0.2 | 5.0 ± 0.2 | 5.3 ± 0.1 | 5.9 ± 0.1 | 46.7 ± 1.4 | 44.5 ± 1.3 | 49.1 ± 1.5 | 54.1 ± 0.3 | 1075.7 ± 52.9 | 1069.3 ± 16.2 | 1012.9 ± 11.1 | 1122.8 ± 6.8 | 431 ± 197 | 89.4 ± 45.3 | 0.61 ± 0.33 | 6.9 ± 3.4 | 319 ± 97.3 | 3.33e-05 | O=C(/C=C/c1ccc(O)c(O)c1)O[C@H]1[C@H](O)C[C@](O)(C(=O)O)C[C@H]1O [Cryptochlorogenic acid] |  |
